Results published in article PMC3266904, “Biochemical Discrimination between Selenium and Sulfur 2: Mechanistic Investigation of the Selenium Specificity of Human Selenocysteine Lyase” (PLoS ONE, 2012).

Target: T1, human selenocysteine lyase (hSCL) (Homo sapiens, UniProt Q96I15)
T1 construct: gene SCLY
T1 sequence (Q96I15 8-445): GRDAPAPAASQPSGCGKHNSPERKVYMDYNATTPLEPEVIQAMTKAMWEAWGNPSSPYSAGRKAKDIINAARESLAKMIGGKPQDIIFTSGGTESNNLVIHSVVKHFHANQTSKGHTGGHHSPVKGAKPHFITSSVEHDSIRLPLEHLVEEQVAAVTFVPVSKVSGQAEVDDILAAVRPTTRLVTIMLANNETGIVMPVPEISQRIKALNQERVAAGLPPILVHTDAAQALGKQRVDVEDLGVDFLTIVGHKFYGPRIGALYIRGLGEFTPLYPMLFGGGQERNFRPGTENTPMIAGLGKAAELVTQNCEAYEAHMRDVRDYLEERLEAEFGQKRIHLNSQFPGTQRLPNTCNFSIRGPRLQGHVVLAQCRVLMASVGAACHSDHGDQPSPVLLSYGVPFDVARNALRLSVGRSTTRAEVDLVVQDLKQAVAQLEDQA
Assay: UV/Vis spectrum of as-isolated protein
Format: binding
Conditions: 120 mM Tris pH 8.5, 2 mM TCEP; covalent internal aldimine

Cc1ncc(COP(=O)(O)O)c(C=O)c1O [PLP]
UV/Vis spectrum of as-isolated protein: the Shiff base linking the PLP cofactor to the protein exists mainly in the protonated
